18 compounds from ChEMBL document CHEMBL1135339, “Structure-activity relationships of novel anti-malarial agents. Part 4: N-(3-benzoyl-4-tolylacetylaminophenyl)-3-(5-aryl-2-furyl)acrylic acid amides” (Bioorg Med Chem Lett, 2002) can be followed below.

This assay concerns Plasmodium falciparum. Kind of assay: Inhibitory concentration against multidrug-resistant Plasmodium falciparum Dd2. The assay is classed as functional, organism-based.

Structures are written as SMILES.

On to `Cc1ccc(CC(=O)Nc2ccc(NC(=O)/C=C/c3ccc(-c4ccc(C(C)(C)C)cc4)o3)cc2C(=O)c2ccccc2)cc1`, for which the IC50 turned out to be 300 nM.
Next, `COc1ccc(-c2ccc(/C=C/C(=O)Nc3ccc(NC(=O)Cc4ccc(C)cc4)c(C(=O)c4ccccc4)c3)o2)cc1`: 130 nM.
Next, `CCCOc1ccc(-c2ccc(/C=C/C(=O)Nc3ccc(NC(=O)Cc4ccc(C)cc4)c(C(=O)c4ccccc4)c3)o2)cc1`: 750 nM; `CCOc1ccc(-c2ccc(/C=C/C(=O)Nc3ccc(NC(=O)Cc4ccc(C)cc4)c(C(=O)c4ccccc4)c3)o2)cc1`: 300 nM; `CCc1ccc(-c2ccc(/C=C/C(=O)Nc3ccc(NC(=O)Cc4ccc(C)cc4)c(C(=O)c4ccccc4)c3)o2)cc1`: 88 nM.
Next, `Cc1ccc(CC(=O)Nc2ccc(NC(=O)/C=C/c3ccc(-c4cccc5ccccc45)o3)cc2C(=O)c2ccccc2)cc1`: 1000 nM; `C=Cc1ccc(-c2ccc(/C=C/C(=O)Nc3ccc(NC(=O)Cc4ccc(C)cc4)c(C(=O)c4ccccc4)c3)o2)cc1`: 85 nM.
`Cc1ccc(CC(=O)Nc2ccc(NC(=O)/C=C/c3ccc(-c4ccc(F)cc4)o3)cc2C(=O)c2ccccc2)cc1` displayed an IC50 of 320 nM.
Next, `Cc1ccc(CC(=O)Nc2ccc(NC(=O)/C=C/c3ccc(-c4ccc5ccccc5c4)o3)cc2C(=O)c2ccccc2)cc1`: 200 nM; `Cc1ccc(CC(=O)Nc2ccc(NC(=O)/C=C/c3ccc(-c4ccc(OC(F)(F)F)cc4)o3)cc2C(=O)c2ccccc2)cc1`: 210 nM; `Cc1ccc(CC(=O)Nc2ccc(NC(=O)/C=C/c3ccc(-c4ccc(Br)cc4)o3)cc2C(=O)c2ccccc2)cc1`: 125 nM.
As for `Cc1ccc(CC(=O)Nc2ccc(NC(=O)/C=C/c3ccc(-c4cccc([N+](=O)[O-])c4)o3)cc2C(=O)c2ccccc2)cc1`, the IC50 worked out at 590 nM.
The compound `Cc1ccc(CC(=O)Nc2ccc(NC(=O)/C=C/c3ccc(-c4ccccc4[N+](=O)[O-])o3)cc2C(=O)c2ccccc2)cc1` had an IC50 of 670 nM. The IC50 values of the last two compounds are within 1.5-fold of each other.
Next, `Cc1ccc(CC(=O)Nc2ccc(NC(=O)/C=C/c3ccc(-c4ccc(C)cc4)o3)cc2C(=O)c2ccccc2)cc1`: 120 nM; `Cc1ccc(CC(=O)Nc2ccc(NC(=O)/C=C/c3ccc(-c4ccc([N+](=O)[O-])cc4)o3)cc2C(=O)c2ccccc2)cc1`: 75 nM; `Cc1ccc(CC(=O)Nc2ccc(NC(=O)/C=C/c3ccc(-c4ccc(Cl)cc4)o3)cc2C(=O)c2ccccc2)cc1`: 145 nM.
`Cc1ccc(CC(=O)Nc2ccc(NC(=O)/C=C/c3ccc(-c4ccccc4)o3)cc2C(=O)c2ccccc2)cc1` gave an IC50 of 415 nM. This IC50 lies about 2.9-fold higher than the previous one.
Compound `CSc1ccc(-c2ccc(/C=C/C(=O)Nc3ccc(NC(=O)Cc4ccc(C)cc4)c(C(=O)c4ccccc4)c3)o2)cc1` returned an IC50 of 84 nM.
